The values that follow are results of earlier work, collected in patent US8147876B2, “Medical agent for preventing or treating diseases resulting from one of inflammation and remodeling, and method for preventing or treating the diseases” (National University Corporation Tokyo Medical and Dental …, priority 2007, dated 2012).

The subject of this series is VCAM-1. As to conditions: human tracheal smooth muscle cells, J Cell Physiol. 2006.

`COc1cc(/C=C/C(=O)CC(=O)/C=C/c2ccc(O)c(OC)c2)ccc1O` [Curcumin]: the “TNFα-induced VCAM-1 expression” value is listed as “inhibit”.
